Data set [1] concerns rabbit skeletal myofibrils (fast skeletal myofibrils). The data set can be described thus: Activation of fast skeletal myofibrils (PUMA assay, AC1.4). Format: biochemical. As to conditions: calcium at pCa25, AC1.4 = concentration at which the compound increased the enzymatic activity. The procedure, abridged: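 In 12 mM PIPES pH 6.8 with 2 mM MgCl2 and 1 mM DTT, Triton-washed rabbit skeletal myofibrils were run at the pCa25 calcium level. Myosin-made ADP was recycled through a PK/LDH coupled system; NADH loss read at 340 nm.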

Data set [2] has as its system ankle plantarflexor muscle. The data set can be described thus: Rat isometric ankle plantarflexor muscle force. Format: in vivo, Sprague Dawley rats. The note with it: continuous intravenous infusion over sixty minutes, 30 Hz nerve stimulation, estimated EC50 = concentration at which muscle force is 50% of pre-dose maximum tension. An excerpt: Female Sprague Dawley rats were placed under a stable anesthetic plane with inhaled isoflurane (1-5%). One incision was made on the mid-thigh region of the right leg to expose the sciatic nerve. To prevent co-contraction of the ankle dorsiflexors, an additional incision was made lateral to the patella to isolate and sever the peroneal nerve. Rats were then placed on a temperature-maintained in situ muscle analysis rig (Aurora Scientific, Model 806C). The knee was immobilized in a clamp between two sharpened screws and the foot was taped to a footplate attached to a force transducer (Aurora Scientific, Ontario, Canada). Stainless steel needle electrodes (0.10 mm) were hooked around the exposed sciatic nerve. Isometric ankle plantarflexor muscle contractile force was assessed with the ankle joint at 90° flexion. A 30 Hz electrical stimulation (under supramaximal voltage conditions) was applied to the nerve and the resulting muscle force was recorded via a servomotor. A pre-dose 30 Hz force response was established as the baseline force. A pre-dose 150 Hz force response was established as the maximum isometric force. Compounds were formulated in 50% polyethylene glycol (PEG): 16% Cavitron: 10% dimethylacetamide (DMA) and administered by continuous intravenous infusion over a sixty minute period. The muscle force response to compound was measured every two minutes over the dosing period. Data were reported as an estimated EC50 value, which is the concentration at which muscle force is 50% of the pre-dose maximum tension. In Table 10, “Example Compound” refers to the compound labeled with the same number in Table 2.

The nature of data set [3]: Static storage stability of crystalline form by XRPD. Type of data set: physicochemical. The note with it: 40° C./75% RH, 7 days (one week).
The nature of data set [4]: Gravimetric vapour sorption (GVS). Format: physicochemical. As for the experimental part:
Sorption isotherms were obtained using a SMS DVS Intrinsic moisture sorption analyser, controlled by DVS Intrinsic Control software. The sample temperature was maintained at 25° C. by the instrument controls. The humidity was controlled by mixing streams of dry and wet nitrogen, with a total flow rate of 200 ml/min. The relative humidity was measured by a calibrated Rotronic probe (dynamic range of 1.0-100% RH), located near the sample. The weight change, (mass relaxation) of the sample as a function of % RH was constantly monitored by a microbalance (accuracy ±0.005 mg).
Typically, 5-30 mg of sample was placed in a tared mesh stainless steel basket under ambient conditions. The sample was loaded and unloaded at 40% RH and 25° C. (typical room conditions). A moisture sorption isotherm was performed as outlined below (2 scans per complete cycle). The standard isotherm was performed at 25° C. at 10% RH intervals over a 0-90% RH range. Typically, a double cycle (4 scans) was carried out. Data analysis was carried out within Microsoft Excel using the DVS Analysis Suite.
The sample was recovered after completion of the isotherm and re-analysed by XRPD.

As for `CC[C@H](C)[C@H]1C(=O)Nc2ccccc2CN1C(=O)CC(N)=O` [Compound 1, 3-((S)-3-((S)-sec-Butyl)-2-oxo-1,2,3,5-tetrahydro-4H-benzo[e][1,4]diazepin-4-yl)-3-oxopropanamide], the AC1.4 in data set [1] was 0.91 µM. Besides, the EC50 in data set [2] is 26.2 µM.

`CC[C@H](C)[C@H]1C(=O)Nc2ccccc2CN1/C(N)=N/C#N` [Compound 2, (S,E)-3-((S)-sec-Butyl)-N′-cyano-2-oxo-1,2,3,5-tetrahydro-4H-benzo[e][1,4]diazepine-4-carboximidamide]: the AC1.4 in data set [1] was 0.08 µM. In addition, the EC50 in data set [2] was 19.1 µM.

For the compound `CC[C@H](C)[C@H]1C(=O)Nc2ccccc2CN1CC(N)=O` [Compound 6, 2-((S)-3-((S)-sec-Butyl)-2-oxo-1,2,3,5-tetrahydro-4H-benzo[e][1,4]diazepin-4-yl)acetamide], the AC1.4 in data set [1] came to 0.89 µM. Also, the EC50 in data set [2] is 20.3 µM.

Turning to `CC(C)[C@H]1C(=O)Nc2ccccc2CN1C(N)=O` [Compound 7, (S)-3-Isopropyl-2-oxo-1,2,3,5-tetrahydro-4H-benzo[e][1,4]diazepine-4-carboxamide], in data set [1], the AC1.4 turned out to be 1.80 µM. In data set [2], the EC50 is 41.1 µM.

As for `CC[C@H](C)[C@H]1C(=O)Nc2cc(F)cc(F)c2CN1C(N)=O` [Compound 8, (S)-3-((S)-sec-butyl)-6,8-difluoro-2-oxo-1,2,3,5-tetrahydro-4H-benzo[e][1,4]diazepine-4-carboxamide], in data set [1], the AC1.4 came out at 0.37 µM. The EC50 in data set [2] was 15.2 µM.

As for `CC[C@H](C)[C@H]1C(=O)Nc2ccc(F)cc2CN1C(N)=O` [Compound 9, (S)-3-((S)-sec-Butyl)-7-fluoro-2-oxo-1,2,3,5-tetrahydro-4H-benzo[e][1,4]diazepine-4-carboxamide], the AC1.4 in data set [1] is 0.28 µM. Moreover, the EC50 in data set [2] is 19.1 µM.

As for `CC[C@H](C)[C@H]1C(=O)Nc2cncc(F)c2CN1C(N)=O` [Compound 10, (S)-3-((S)-sec-Butyl)-6-fluoro-2-oxo-1,2,3,5-tetrahydro-4H-pyrido[3,4-e][1,4]diazepine-4-carboxamide], the AC1.4 in data set [1] stood at 0.71 µM. Moreover, the EC50 in data set [2] is 18.8 µM.

Regarding `CC[C@H](C)[C@H]1C(=O)Nc2cnccc2CN1C(N)=O` [Compound 12, (S)-3-((S)-sec-butyl)-2-oxo-1,2,3,5-tetrahydro-4H-pyrido[3,4-e][1,4]diazepine-4-carboxamide], the AC1.4 in data set [1] was determined as 0.84 µM. The concentration for a half-maximal effect (EC50) in data set [2] was 38.7 µM.

For `CC[C@H](C)[C@H]1C(=O)Nc2ccccc2CN1C(=O)N1CC(O)C1` [Compound 32, (S)-3-((S)-sec-Butyl)-4-(3-hydroxyazetidine-1-carbonyl)-1,3,4,5-tetrahydro-2H-benzo[e][1,4]diazepin-2-one], the AC1.4 in data set [1] came to 0.13 µM. The EC50 in data set [2] is 12.6 µM.

Take `CC[C@H](C)[C@H]1C(=O)Nc2ccccc2CN1C(=O)CCO` [Compound 49, (S)-3-((S)-sec-butyl)-4-(3-hydroxypropanoyl)-1,3,4,5-tetrahydro-2H-benzo[e][1,4]diazepin-2-one]: the AC1.4 in data set [1] stood at 0.55 µM. For the same compound, in data set [2], the EC50 is 28 µM.

Regarding `CC(C)[C@H]1C(=O)Nc2ccccc2CN1/C(N)=N/C#N` [Compound 64, (S,E)-N′-Cyano-3-isopropyl-2-oxo-1,2,3,5-tetrahydro-4H-benzo[e][1,4]diazepine-4-carboximidamide], the AC1.4 in data set [1] is 0.53 µM. In addition, the EC50 in data set [2] was 20.1 µM.

Regarding `CC[C@H](C)[C@H]1C(=O)Nc2cccc(F)c2CN1C(N)=O` [Compound 65, (S)-3-((S)-sec-butyl)-6-fluoro-2-oxo-1,2,3,5-tetrahydro-4H-benzo[e][1,4]diazepine-4-carboxamide], the AC1.4 in data set [1] turned out to be 0.37 µM. Also, the half-maximal effective concentration (EC50) in data set [2] is 11.3 µM.

In the case of `CC[C@H](C)[C@H]1C(=O)Nc2cnccc2CN1/C(N)=N/C#N` [Compound 82, (S,E)-3-((S)-sec-butyl)-N′-cyano-2-oxo-1,2,3,5-tetrahydro-4H-pyrido[3,4-e][1,4]diazepine-4-carboximidamide], the AC1.4 in data set [1] stood at 0.24 µM. Further, the EC50 in data set [2] was 21.4 µM.

With `CC[C@H](C)[C@H]1C(=O)Nc2ccccc2CN1C(=O)N[C@H]1CCN(C)C1` [Compound 144, (S)-3-((S)-sec-butyl)-N-((S)-1-methylpyrrolidin-3-yl)-2-oxo-1,2,3,5-tetrahydro-4H-benzo[e][1,4]diazepine-4-carboxamide], in data set [1], the AC1.4 amounted to 0.28 µM. Also, the EC50 in data set [2] is 10.5 µM.

Regarding `CC(C)[C@H]1C(=O)Nc2cc(F)ccc2CN1C(N)=O` [Compound 357, (S)-8-fluoro-3-isopropyl-2-oxo-1,2,3,5-tetrahydro-4H-benzo[e][1,4]diazepine-4-carboxamide], the AC1.4 in data set [1] came to 1.69 µM. Further, the EC50 in data set [2] was 58.3 µM.

Turning to `CC[C@H](C)[C@H]1C(=O)Nc2cnccc2CN1c1c(N2CC(O)C2)c(=O)c1=O` [Compound 375, 3-((S)-3-((S)-sec-butyl)-2-oxo-1,2,3,5-tetrahydro-4H-pyrido[3,4-e][1,4]diazepin-4-yl)-4-(3-hydroxyazetidin-1-yl)cyclobut-3-ene-1,2-dione], the AC1.4 in data set [1] was determined as 0.26 µM.

`CC[C@H](C)[C@H]1C(=O)Nc2cnccc2CN1c1c(NC)c(=O)c1=O` [Compound 376, 3-((S)-3-((S)-sec-butyl)-2-oxo-1,2,3,5-tetrahydro-4H-pyrido[3,4-e][1,4]diazepin-4-yl)-4-(methylamino)cyclobut-3-ene-1,2-dione]: the AC1.4 in data set [1] was found to be 0.18 µM.

In the case of `CC[C@H](C)[C@H]1C(=O)Nc2cnccc2CN1c1c(N(C)C)c(=O)c1=O` [Compound 377, 3-((S)-3-((S)-sec-butyl)-2-oxo-1,2,3,5-tetrahydro-4H-pyrido[3,4-e][1,4]diazepin-4-yl)-4-(dimethylamino)cyclobut-3-ene-1,2-dione], the AC1.4 in data set [1] is 0.29 µM.

As for `CC[C@H](C)[C@H]1C(=O)Nc2cnccc2CN1c1c(N)c(=O)c1=O` [Compound 378, 3-amino-4-((S)-3-((S)-sec-butyl)-2-oxo-1,2,3,5-tetrahydro-4H-pyrido[3,4-e][1,4]diazepin-4-yl)cyclobut-3-ene-1,2-dione], in data set [1], the AC1.4 was 0.15 µM.

For `CC[C@H](C)[C@H]1C(=O)Nc2cnccc2CN1C(=O)N1CC(O)C1` [Compound 379, (S)-3-((S)-sec-butyl)-4-(3-hydroxyazetidine-1-carbonyl)-1,3,4,5-tetrahydro-2H-pyrido[3,4-e][1,4]diazepin-2-one], in data set [1], the AC1.4 is 0.92 µM.

As for `CC[C@H](C)[C@H]1C(=O)Nc2cnccc2N1/C(=N/C#N)Oc1ccccc1` [Compound 380, phenyl (S,Z)-2-((S)-sec-butyl)-N-cyano-3-oxo-3,4-dihydropyrido[3,4-b]pyrazine-1(2H)-carbimidate], the AC1.4 in data set [1] worked out at 1.25 µM.

As for `CC[C@H](C)[C@H]1C(=O)Nc2cnccc2CN1c1c(NCCOC)c(=O)c1=O` [Compound 381, 3-((S)-3-((S)-sec-butyl)-2-oxo-1,2,3,5-tetrahydro-4H-pyrido[3,4-e][1,4]diazepin-4-yl)-4-((2-methoxyethyl)amino)cyclobut-3-ene-1,2-dione], the AC1.4 in data set [1] is 0.48 µM.

Regarding `CC[C@H](C)[C@H]1C(=O)Nc2cncc(F)c2CN1C(N)=O` [Form II], the “Static storage, XRPD” value in data set [3] is recorded as “no changes”. Besides, the “Hygroscopicity by GVS” value in data set [4] (0-90% RH) was “slightly hygroscopic”. In data set [4] (between 0 and 90% RH, 25° C.), this compound showed a GVS mass change of 0.23%. The “XRPD after GVS analysis” value in data set [4] (form after GVS measurement) was “unchanged”.

A word on the EC50: it is the concentration at which the effect is half-maximal.

The record behind these values is patent US12441691B2 (Cytokinetics, Inc., priority 2020, dated 2025).
